# Laboratory results: patent US9216954B2, “Serine racemase inhibitor” (National University Corporation University of Toyama, priority 2012, dated 2015)
# Legend:
# [1] = biological target: T1, Recombinant SR (serine racemase) (Homo sapiens, UniProt Q9GZT4); assay: Serine racemase (SR) enzyme activity measurement: L-serine racemization reaction, D-serine quantified via Dsd1/DNP colorimetry; type: biochemical; settings: compound 0.3 mM (footnote ‡); value in parentheses = malonic acid (control) in the same run
# T1 construct: made in house; host or cells: Escherichia coli
# T1 sequence (Q9GZT4 1-340): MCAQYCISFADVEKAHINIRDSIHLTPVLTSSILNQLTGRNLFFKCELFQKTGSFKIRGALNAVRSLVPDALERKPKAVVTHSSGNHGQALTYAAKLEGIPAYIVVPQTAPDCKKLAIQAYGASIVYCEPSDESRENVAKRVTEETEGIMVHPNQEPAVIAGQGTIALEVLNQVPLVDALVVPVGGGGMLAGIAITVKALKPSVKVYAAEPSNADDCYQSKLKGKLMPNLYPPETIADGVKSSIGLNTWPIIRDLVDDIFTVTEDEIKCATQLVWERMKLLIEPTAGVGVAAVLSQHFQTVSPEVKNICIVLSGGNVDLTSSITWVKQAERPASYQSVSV
# Method: (1) L-Serine Racemization Reaction
# (2) Quantitative Determination of D-serine
# D-serine was quantitatively determined in accordance with the method proposed by Ito et al. (Analytical Biochemistry, 371: 167-172, 2007).
# A solution including 25 μL of 100 mM HEPES (pH: 8.0), 20 μM PLP, and 2 μg of recombinant D-serine dehydratase 1 (Dsd1) was added to 25 μL of the reaction mixture (see (1)), and the mixture was reacted at 30° C. for 30 minutes.
# In order to measure pyruvic acid produced from D-serine by Dsd1 using a colorimetric reaction, 50 μL of 0.05% DNP/2M HCl was added to 50 μL of the reaction solution, and the mixture was reacted at 30° C. for 5 minutes. After the addition of 100 μL of ethanol and 125 μL of 10 M NaOH, the mixture was sufficiently mixed, and reacted at room temperature for 10 minutes, and the absorbance at a wavelength of 515 nm was measured using a spectrophotometer.
Structure (SMILES),% human (0. 3 mM) [1],melting point
"O=C(Nc1ccc(Cl)c(Cl)c1)Nc1ccccc1NS(=O)(=O)c1ccc(Br)cc1 [ED-27, 4-Bromo-N-{2-[3-(3,4-dichloro-phenyl)-ureido]-phenyl}-benzenesulfonamide]",48%,
"COc1ccc(S(=O)(=O)Nc2ccccc2NC(=O)Nc2ccc(Cl)c(Cl)c2)cc1 [ED-31, N-{2-[3-(3,4-Dichloro-phenyl)-ureido]-phenyl}-4-methoxy-benzenesulfonamide]",58%,
"O=C(Nc1ccc(Cl)cc1Cl)Nc1ccccc1NS(=O)(=O)c1ccc(Cl)cc1 [ED-36, 4-Chloro-N-{2-[3-(2,4-dichloro-phenyl)-ureido]-phenyl}-benzenesulfonamide]",46%,
"Cc1ccc(/C=C/S(=O)(=O)Nc2ccccc2NC(=O)Nc2ccc(Cl)c(Cl)c2)cc1 [ED-37, 2-p-Tolyl-ethenesulfonic acid {2-[3-(3,4-dichloro-phenyl)-ureido]phenyl}-amide]",48%,
"O=C(O)CC(=O)O [malonic acid, reference compound]",51%,

# Further lines, results first:
% human (0. 3 mM) [1],melting point,Structure (SMILES)
,208 to 209 °C,"O=C(CNC(=O)COc1ccc(Br)cc1)NCc1ccc(Br)cc1 [MM-28, N-[(4-Bromo-benzylcarbamoyl)-methyl]-2-(4-bromo-phenoxy)-acetamide]"
,179 to 180 °C,"O=C(CNC(=O)COc1ccc(Br)cc1)NCc1ccc(Br)cc1F [MM-29, N-[(4-Bromo-2-fluoro-benzylcarbamoyl)-methyl]-2-(4-bromo-phenoxy)-acetamide]"
,174 to 175 °C,"COc1ccc(OCC(=O)NCC(=O)Nc2cccc(Br)c2)cc1 [MM-31, N-[(3-Bromo-phenylcarbamoyl)-methyl]-2-(4-methoxy-phenoxy)-acetamide]"
,205 to 206 °C,"O=C(COc1ccc(Br)cc1)NCC(=O)Nc1cccc(Cl)c1 [MM-32, 2-(4-Bromo-phenoxy)-N-[(3-chloro-phenylcarbamoyl)-methyl]-acetamide]"
,197 to 198 °C,"O=C(COc1ccc(Br)cc1)NCC(=O)Nc1cccc([N+](=O)[O-])c1 [MM-33, 2-(4-Bromo-phenoxy)-N-[(3-nitro-phenylcarbamoyl)-methyl]-acetamide]"
,145 to 146 °C,"O=C(COc1ccc(OCc2ccccc2)cc1)NCC(=O)Nc1c(F)cccc1F [MM-34, 2-(4-Benzyloxy-phenoxy)-N-[(2,6-difluoro-phenylcarbamoyl)-methyl]-acetamide]"
,197 to 198 °C,"O=C(COc1ccc(O)cc1)NCC(=O)Nc1c(F)cccc1F [MM-35, N-[(2,6-difluorophenylcarbamoyl)methyl]-2-(4-hydroxyphenoxy)acetamide]"
,192 to 193 °C,"Cc1cccc(OCC(=O)NCC(=O)Nc2ccc(I)cc2)c1 [MM-36, N-[(4-Iodo-phenylcarbamoyl)-methyl]-2-m-tolyloxy-acetamide]"
,186 to 187 °C,"Cc1cccc(OCC(=O)NCC(=O)Nc2ccc(O)cc2)c1 [MM-37, N-[(4-hydroxyphenylcarbamoyl)methyl]-2-m-tolyloxyacetamide]"
